SMILES strings stand for the structures. Where two headings read alike, the source gives them in different places.

Data set [1] deals with LN-229. Briefly: CellTiter-Glo cell proliferation assay, LN-229. Format: cell-based. Conditions: Table 11, read-out: Absolute IC50 (μM) LN-229. How it is done: (§1) CellTiter-Glo® Luminescent Cell Viability assay (with Promega CellTiter 96® Luminescent CellTiter-Glo® kit) was used to study the proliferation inhibition by test compounds. Compounds were resuspended in DMSO to make a 25 mM stock suspension. Cells of cancer cell lines or normal tissues were seeded in 96-well plates at 1,500 to 5,000 cells/well overnight. Compounds were 2- or 3-fold diluted serially to obtain 10 concentrations. Then, the drugs were added to the cell wells by Bravo (Agilent) and incubated for 72 hours. The cells were lysed by adding CellTiter-Glo® Reagent (per manufacturer's instructions) and subsequently, the luminescence was read using EnVision® (PerkinElmer).
(§2) The percent of growth was calculated as follows. DMSO-treated cells were employed as vehicle control (High control, HC) and culture medium alone was employed as background (Low control, EC). % growth=100×(Lum sample−Lum EC)/(Lum HC−Lum EC). The ICso was calculated by concentration-response curve fitting using Graphpad Prism.
(§3) Hematological cancer cell lines tested included OCI-AML3, MV-4-11, KG-1, Kasumi-1, K562, THP-1; solid cancer cell lines tested included U87MG, U251, T98G, LN229, A172, H460, H2009, A549; normal cell lines tested included HCN2 and 3T3-L1. […] However, they were not toxic to in vitro cultured normal cells.

Data set [2] relates to T98G. Briefly: CellTiter-Glo cell proliferation assay, T98G. The data set is classed as cell-based. Conditions: Table 11, read-out: Absolute IC50 (μM) T98G. As for the experimental part:
as §1, §2, §3
Background: Cellular ATP, detected with luciferase, serves as a proxy for viable cell number.

Data set [3] has as its system U251. The experiment in a line: CellTiter-Glo cell proliferation assay, U251. Format: cell-based. Conditions: Table 11, read-out: Absolute IC50 (μM) U251. As for the experimental part: as §1, §2, §3
Data set [4] has as its system U87MG. The experiment in a line: CellTiter-Glo cell proliferation assay, U87MG. The data set is classed as cell-based, human. Conditions: U87MG, Table 12; for IC50: Homo sapiens, U-87 MG; for Bottom / Hill Slope / Top: curve fit. As for the experimental part:
as §1, §2, §3

The target in data set [5] is T1, XPO1 (Homo sapiens, UniProt O14980). The experiment in a line: REV-GFP translocation assay in U2OS cells. The data set is classed as cell-based. Further details: endogenous in cells; host or cells: U2OS cells stably expressing REV-GFP (clones from HD Biosciences). To be noted: for EC50: 1 h. How it is done:
LTD in China, and cells were cultured with growth medium. […] The highest Leptomycin B (LMB) concentration was set to 50 nM and serially diluted as the positive control, while the highest concentrations of other compounds were set to 10 μM. The cells treated with various drugs or DMSO, were incubated at 37° C. and 5% CO2 for 1 h. Then, cells were fixed with 4% formaldehyde for 15 min at room temperature. The cells were washed and stained with 100 μL Hoechst 33342 working solution for 10 min at room temperature in dark, after which the cell fluorescence was imaged with the High-Content Imaging System, ImageXpress® (Molecular Devices) using the 20× objective. The filters were set for Hoechst (350/461 nm) and GFP/FITC (488/509 nm) (wavelength for excitation and emission maxima). The % effect of REV nuclear translocation was calculated with the following formula: % effect=([…]- signals from testing compounds; ILMB-signals of 50 nM LMB group; ICTRL-signals of vehicle control group.

Data set [6] has as its target T1, XPO1. The experiment in a line: Compound washout assay in REV-GFP cells. As for the experimental part: In order to evaluate the duration of XPO1 inhibition by test compounds on XPO1 protein after washout, washout assay was performed using REV-GFP cells. The test compounds and positive control were added to the cell well, and the plate was incubated the at 37° C. and 5% CO2 for 1 h. The drug-containing media were removed, the cells were washed, and the fresh media were added. The cells were imagined at the specified time points 0, 4, 24, 48, 72, and 96 hours to evaluate the inhibition of REV nuclear export. […] 4A. […] 4B. […] 4C.

T1 sequence (O14980 whole entry): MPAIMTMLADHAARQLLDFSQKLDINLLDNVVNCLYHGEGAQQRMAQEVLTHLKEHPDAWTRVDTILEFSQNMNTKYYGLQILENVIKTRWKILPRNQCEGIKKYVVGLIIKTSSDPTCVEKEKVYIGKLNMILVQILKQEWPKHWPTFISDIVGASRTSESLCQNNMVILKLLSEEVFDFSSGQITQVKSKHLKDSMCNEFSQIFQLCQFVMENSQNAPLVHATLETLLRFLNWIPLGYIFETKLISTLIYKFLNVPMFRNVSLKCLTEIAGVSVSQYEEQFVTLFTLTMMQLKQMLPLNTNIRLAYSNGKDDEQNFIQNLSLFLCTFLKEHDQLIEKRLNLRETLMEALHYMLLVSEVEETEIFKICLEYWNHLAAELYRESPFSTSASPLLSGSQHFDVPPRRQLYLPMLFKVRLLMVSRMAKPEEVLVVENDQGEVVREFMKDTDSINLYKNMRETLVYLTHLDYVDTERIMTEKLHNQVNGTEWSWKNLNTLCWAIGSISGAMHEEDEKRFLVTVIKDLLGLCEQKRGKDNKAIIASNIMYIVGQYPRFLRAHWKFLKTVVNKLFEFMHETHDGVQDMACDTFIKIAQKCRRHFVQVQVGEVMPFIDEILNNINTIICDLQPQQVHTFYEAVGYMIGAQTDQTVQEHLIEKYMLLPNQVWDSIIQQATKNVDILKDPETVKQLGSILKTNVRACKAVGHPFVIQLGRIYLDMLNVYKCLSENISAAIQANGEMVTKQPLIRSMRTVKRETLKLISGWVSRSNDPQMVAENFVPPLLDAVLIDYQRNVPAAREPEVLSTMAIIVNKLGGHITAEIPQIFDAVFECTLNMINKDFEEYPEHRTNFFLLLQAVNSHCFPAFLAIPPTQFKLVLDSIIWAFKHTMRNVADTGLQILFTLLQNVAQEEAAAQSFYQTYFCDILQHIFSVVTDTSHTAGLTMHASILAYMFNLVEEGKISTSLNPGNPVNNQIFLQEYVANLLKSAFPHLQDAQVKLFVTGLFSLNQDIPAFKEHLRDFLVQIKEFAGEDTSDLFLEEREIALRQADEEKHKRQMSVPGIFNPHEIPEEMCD

Consider `N.N.[Cl][Pt][Cl]` [Cisplatin, reference compound], for which the IC50 was 13 µM in data set [1], 12.3 µM in data set [2] and 6 µM in data set [3].
On to `CCCC(=O)NNC(=O)/C=C\n1cnc(-c2cc(C(F)(F)F)cc(S(F)(F)(F)(F)F)c2)n1` [Compound IX, (Z)—N′-(3-(3-(3-(Pentafluorosulfaneyl)-5-(trifluoromethyl)phenyl)-1H-1,2,4-triazol-1-yl)acryloyl)butyrohydrazide], for which the IC50 in data set [4] (read-out: Relative IC50) turned out to be 100 nM. Moreover, in data set [4], the “Max % Inhibition” value turned out to be 48.3%, the Bottom is given as −4.6, the “Hill Slope” value is 1.6 and the Top amounted to 43.6.
On to `O=C(/C=C\n1cnc(-c2cc(C(F)(F)F)cc(S(F)(F)(F)(F)F)c2)n1)NNc1nccs1` [Compound VI, (Z)-3-(3-(3-(Pentafluorosulfaneyl)-5-(trifluoromethyl)phenyl)-1H-1,2,4-triazol-1-yl)-N′-(thiazol-2-yl)acrylohydrazide], for which the IC50 in data set [1] (Homo sapiens, LN-229) is 1.7 µM; in data set [2] (Homo sapiens, T98G) it was 2.6 µM; in data set [5] (Table 10, first (or only) value of the cell) it was 25.2 nM; in data set [3] (Homo sapiens, U-251), 3.8 µM. Also, the EC50 in data set [5] (REV-EGFP U2OS cells, Table 2, read-out: Rev-GFP/EC50) was found to be 25.2 nM.
As to `O=C(/C=C\n1cnc(-c2cc(C(F)(F)F)cc(S(F)(F)(F)(F)F)c2)n1)NNC(=O)C1CC1` [Compound VII, (Z)—N′-(3-(3-(3-(Pentafluorosulfaneyl)-5-(trifluoromethyl)phenyl)-1H-1,2,4-triazol-1-yl)acryloyl)cyclopropanecarbohydrazide], in data set [4] (read-out: Relative IC50), the IC50 came out at 100 nM. In addition, in data set [4], the “Max % Inhibition” value is reported as 49.0%, the Bottom is recorded as −6.4, the “Hill Slope” value worked out at 1.2 and the Top is on record as 45.9.
The like results for `CC(C)C(=O)NNC(=O)/C=C\n1cnc(-c2cc(C(F)(F)F)cc(S(F)(F)(F)(F)F)c2)n1` [Compound VIII, (Z)—N′-Isobutyryl-3-(3-(3-(pentafluorosulfaneyl)-5-(trifluoromethyl)phenyl)-1H-1,2,4-triazol-1-yl)acrylohydrazide] were, in that order, 100 nM, 44.0%, −10.6, 1.8 and 38.8.
In the case of `O=C(/C=C\n1cnc(-c2cc(C(F)(F)F)cc(S(F)(F)(F)(F)F)c2)n1)NNC(=O)C1CCC1` [Compound X, (Z)—N′-(3-(3-(3-(Pentafluorosulfaneyl)-5-(trifluoromethyl)phenyl)-1H-1,2,4-triazol-1-yl)acryloyl)cyclobutanecarbohydrazide], the IC50 in data set [4] (read-out: Absolute IC50) worked out at 9400 nM. Besides, in data set [4] (read-out: Relative IC50), the IC50 amounted to 200 nM. In addition, in data set [4], the “Max % Inhibition” value is 58.3%, the Bottom was −15.9, the “Hill Slope” value amounted to 0.5 and the Top is listed as 59.4.
Turning to `CC1(C(=O)NNC(=O)/C=C\n2cnc(-c3cc(C(F)(F)F)cc(S(F)(F)(F)(F)F)c3)n2)CC1` [Compound XI, (Z)-1-Methyl-N′-(3-(3-(3-(pentafluorosulfaneyl)-5-(trifluoromethyl)phenyl)-1H-1,2,4-triazol-1-yl)acryloyl)cyclopropane-1-carbohydrazide], the concentration for half-maximal inhibition (IC50) in data set [4] (read-out: Relative IC50) worked out at 200 nM. Moreover, in data set [4], the “Max % Inhibition” value is 48.5%, the Bottom is −7.6, the “Hill Slope” value worked out at 1.8 and the Top turned out to be 44.6.
As to `CC(CO)(CCl)C(=O)NNC(=O)/C=C\n1cnc(-c2cc(C(F)(F)F)cc(S(F)(F)(F)(F)F)c2)n1` (centres unmarked) [Compound XII, (Z)—N′-(3-Chloro-2-(hydroxymethyl)-2-methylpropanoyl)-3-(3-(3-(pentafluorosulfaneyl)-5-(trifluoromethyl)phenyl)-1H-1,2,4-triazol-1-yl)acrylohydrazide], in data set [4] (read-out: Absolute IC50), the IC50 was determined as 18500 nM. In data set [4] (read-out: Relative IC50), the IC50 was 600 nM. Besides, in data set [4], the “Max % Inhibition” value was determined as 53.9%, the Bottom is on record as −5.5, the “Hill Slope” value is given as 1.2 and the Top was determined as 50.9.
Regarding `CC(C)(C)C(=O)NNC(=O)/C=C\n1cnc(-c2cc(C(F)(F)F)cc(C(F)(F)F)c2)n1` [KPT-350, (Z)-3-(3-(3,5-bis(trifluoromethyl)phenyl)-1H-1,2,4-triazol-1-yl)-N′-pivaloylacrylohydrazide, reference compound], the IC50 in data set [4] (read-out: Absolute IC50) was found to be 10000 nM. For the same molecule, the IC50 in data set [4] (read-out: Relative IC50) was determined as 300 nM. In data set [4], the “Max % Inhibition” value is 49.4%, the Bottom is on record as −13.2, the “Hill Slope” value is on record as 0.8 and the Top turned out to be 53.0.
As to `CCC(=C/[C@H](C)C/C=C/C(C)=C/[C@@H](C)C(=O)[C@@H](C)[C@H](O)[C@@H](C)C/C(C)=C/C(=O)O)/C=C/[C@@H]1OC(=O)C=C[C@@H]1C` [LMB, Leptomycin B, reference compound], in data set [5] (Rev-GFP-U2OS cells, FIG. 1B, read-out: EC50 in the Rev redistribution), the EC50 is 0.11 nM. The “sustained retention of REV protein in the nucleus post washout” value in data set [6] (50 nM, 1 h treatment then washout) is listed as “up to 24 hours”. In addition, in data set [6] (50 nM, 72 hours post washout), the “effect on retention of REV protein in the nucleus” value was 30%. For the same molecule, in data set [6] (washout assay), the “toxicity / cell number compared to the control” value is “showed toxicity”.

Usually IC50 stands for the concentration needed to halve the response being measured.

Source of the values: patent publication US11767313B2, “Compounds as nuclear transport modulators and uses thereof” (XWPHARMA LTD., priority 2018, dated 2023).
